Assay results as given in patent publication US20240122179A1, “AUXINIC HERBICIDES AND METHODS OF USE THEREOF” (CORTEVA AGRISCIENCE LLC, priority 2021, published 2024).
Where two headings read alike, the source gives them in different places.

How the values were obtained:
[1] = Volatility of compounds measured by thermogravimetric analysis (TGA), rate of weight loss; assay type: physicochemical; details: estimates of volatility
Excerpt: Briefly, the rate of weight loss measured in units of […]g/min can be used to determine vapor pressure as shown by the simplified equation: wherein, k is the intrinsic volatility and A is the surface area, Referring now to FIG. 2. A graph of weight loss as function of time for solid samples produces a linear curve; the slope of the curve is the rate of weight loss. When this method is used to measure the volatility of aqueous salt concentrates or liquid concentrates, the water or acetone present in the sample volatilizes before the sample of interest. The first linear loss region of the curve is the loss of water or acetone and the second linear region is characteristic of the sample of interest. In order to illustrate the difference in volatility between some of the compounds disclosed herein and the widely used herbicide dicamba, data from both the compounds and dicamba are presented Table 3 and in FIG. 1.

[2] = test system: Conyza canadensis (L.) (ERICA); experiment: Postemergence herbicide evaluation, percent reduction in plant size vs untreated control, 21 days after treatment; assay type: in vivo, Conyza canadensis (L.) (Horseweed); details: Erigeron canadensis, post-emergence, 504 h, ERICA, postemergence, read-out: Control/Injury; for pest or weed control at 140 g/ha: rate 140 g ae/ha; for pest or weed control at 280 g/ha: rate 280 g ae/ha
Summary of the method: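 Track-sprayer applications (187 L/ha, 276 kPa) of 140 or 280 g ae/ha, technical material dissolved in acetone/DMSO then diluted with crop oil and surfactant-containing solvent, to greenhouse Conyza canadensis at 2-8 leaves. After 21 days, size reduction relative to untreated plants was recorded; 3-4 randomized replicates.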

[3] = test system: Amaranthus palmeri (AMAPA); experiment: as above; assay type: in vivo, Amaranthus palmeri (Palmer amaranth); details: post-emergence, 504 h, postemergence, read-out: Control/Injury; for pest or weed control at 140 g/ha: rate 140 g ae/ha; for pest or weed control at 280 g/ha: rate 280 g ae/ha
Summary of the method: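 Percent reduction in plant size relative to untreated plants, measured 21 days after track-sprayer application (187 L/ha) of 140 or 280 g ae/ha to Amaranthus palmeri at the 2 to 8 leaf stage. Randomized complete block, 3 or 4 replicates, greenhouse at 25 to 28° C; spray solution acetone/DMSO with isopropanol, water and crop oil concentrate.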

Amaranthus rudis (AMATA) = experiment: as above; assay type: in vivo, Amaranthus rudis (tall water hemp); details: Amaranthus tuberculatus, post-emergence, 504 h, AMATA, postemergence, read-out: Control/Injury; for pest or weed control at 140 g/ha: rate 140 g ae/ha; for pest or weed control at 280 g/ha: rate 280 g ae/ha
Summary of the method: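 Growth-reduction values are percent decrease in plant size relative to untreated plants, scored 21 days post-application. Amaranthus rudis (2-8 leaves) received postemergence sprays at 140 or 280 g ae/ha, 187 L/ha, in a mixed acetone/DMSO/water/isopropanol carrier with crop oil concentrate. Greenhouse conditions were 25-28° C, 50-60% RH; 3-4 randomized replicates.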

Kochia scoparia (KCHSC) = experiment: as above; assay type: in vivo; details: Bassia scoparia, post-emergence, 504 h, KCHSC, postemergence, read-out: Control/Injury; for pest or weed control at 140 g/ha: rate 140 g ae/ha; for pest or weed control at 280 g/ha: rate 280 g ae/ha
Summary of the method: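 Values are percent reduction in plant size against an untreated control, measured 21 days after a single postemergence spray at 140 or 280 g ae/ha (187 L/ha, 276 kPa). Treatments used 3-4 randomized complete-block replicates on 2 to 8 leaf-stage plants kept in a 25-28 °C greenhouse, with compounds in acetone/DMSO-based solvent containing crop oil and surfactant.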

Glycine max = experiment: whole plant or invertebrate; details: for plant injury at 140 g/ha / plant injury at 280 g/ha: Glycine max, post-emergence, 504 h, read-out: Control/Injury
Summary of the method: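 Greenhouse soybean (25–28 °C, 16 h light) sprayed post-emergence at 2–8 leaf stage with 140 or 280 g ae/ha in acetone/DMSO-based spray solution with crop oil concentrate, 187 L/ha by track sprayer; 3–4 replicates, randomized blocks. Plant size reduction versus untreated control measured 21 days after treatment.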

[4] = test system: Ambrosia artemisiifolia (AMBEL); experiment: Postemergence herbicide evaluation, percent reduction in plant size vs untreated control, 21 days after treatment; assay type: in vivo, Ambrosia artemisiifolia (common ragweed); details: post-emergence, 504 h, AMBEL, postemergence, read-out: Control/Injury; for pest or weed control at 140 g/ha: rate 140 g ae/ha; for pest or weed control at 280 g/ha: rate 280 g ae/ha
Summary of the method: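 Test compounds at 140 or 280 g ae/ha were applied by track sprayer (187 L/ha, spray solution containing acetone/DMSO, isopropanol, crop oil, surfactant) to 2–8 leaf plants, 3–4 replicates. Plants were kept in a greenhouse at 25–28 °C. Size reduction was scored against untreated controls at 21 days.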

[5] = percent reduction vs untreated control, 21 days after treatment
[6] = R-AMAPA, percent reduction vs untreated control, 21 days after treatment
[7] = percent reduction vs untreated, 21 days after treatment

Row | Structure (SMILES) | Volatility [1] | pest or weed control at 140 g/ha [2, 5] | pest or weed control at 280 g/ha [2, 5] | pest or weed control at 140 g/ha (Amaranthus rudis (AMATA)) | pest or weed control at 280 g/ha (Amaranthus rudis (AMATA)) | pest or weed control at 140 g/ha [4] | pest or weed control at 280 g/ha [4] | further results
1 | COc1c(Cl)ccc(Cl)c1C(=O)O/N=C(\C)C/C(C)=N/OC(=O)c1c(Cl)ccc(Cl)c1OC [Compound A-58] | 0.11 ng/min | – | – | – | – | – | – | –
2 | COc1c(Cl)ccc(Cl)c1C(=O)OCc1ccc(COC(=O)c2c(Cl)ccc(Cl)c2OC)cc1 [Compound A-56] | 0.08 ng/min | – | – | – | – | – | – | –
3 | COc1c(Cl)ccc(Cl)c1C(=O)ONC(=O)c1ccccc1 [Compound A-89] | – | 77% | 95% | 63% | 78% | 80% | 90% | pest or weed control at 140 g/ha [3, 6]: 70%; pest or weed control at 280 g/ha [3, 6]: 88%; pest or weed control at 140 g/ha (Kochia scoparia (KCHSC); [5]): 84%; pest or weed control at 280 g/ha (Kochia scoparia (KCHSC); [5]): 95%; plant injury at 140 g/ha (Glycine max): 13%; plant injury at 280 g/ha (Glycine max): 5%
4 | COc1c(Cl)ccc(Cl)c1C(=O)ONC(=O)c1cccnc1 [Compound A-94] | – | 62% | 77% | 68% | – | 75% | 83% | pest or weed control at 140 g/ha ([3]; AMAPA): 83%; pest or weed control at 280 g/ha ([3]; AMAPA): 99%; pest or weed control at 140 g/ha [3, 6]: 73%; pest or weed control at 280 g/ha [3, 6]: 80%; pest or weed control at 140 g/ha (Kochia scoparia (KCHSC); [5]): 85%; pest or weed control at 140 g/ha (Kochia scoparia (KCHSC); [7]): 93%; pest or weed control at 280 g/ha (Kochia scoparia (KCHSC); [5]): 93%; pest or weed control at 280 g/ha (Kochia scoparia (KCHSC); [7]): 98%; pest or weed control at 140 g/ha [2]: 95%; pest or weed control at 280 g/ha [2]: 99%; plant injury at 140 g/ha (Glycine max): 12%; plant injury at 280 g/ha (Glycine max): 3%; Control/Injury (Glycine max; in vivo): 15
5 | COc1c(Cl)ccc(Cl)c1C(=O)ON1C(=O)CCC1=O [Compound A-73] | – | 85% | 80% | 50% | 88% | 77% | 82% | pest or weed control at 140 g/ha [3, 6]: 70%; pest or weed control at 280 g/ha [3, 6]: 83%; pest or weed control at 140 g/ha (Kochia scoparia (KCHSC)): 82%; pest or weed control at 280 g/ha (Kochia scoparia (KCHSC)): 88%; plant injury at 280 g/ha (Glycine max): 4%; Control/Injury (Glycine max; in vivo): 1
6 | COc1c(Cl)ccc(Cl)c1C(=O)Oc1nc(-c2ccccc2)cs1 [Compound A-120] | – | – | – | 40% | 58% | 68% | 85% | pest or weed control at 140 g/ha ([3]; AMAPA): 28%; pest or weed control at 280 g/ha ([3]; AMAPA): 45%; pest or weed control at 140 g/ha (Kochia scoparia (KCHSC); [7]): 63%; pest or weed control at 280 g/ha (Kochia scoparia (KCHSC); [7]): 85%; pest or weed control at 140 g/ha [2]: 85%; pest or weed control at 280 g/ha [2]: 99%; Control/Injury (Glycine max; in vivo): 5
7 | COc1c(Cl)ccc(Cl)c1C(=O)NCc1ccccc1 [Compound A-114] | – | – | – | 0% | 5% | 5% | 0% | pest or weed control at 140 g/ha ([3]; AMAPA): 5%; pest or weed control at 280 g/ha ([3]; AMAPA): 5%; pest or weed control at 140 g/ha (Kochia scoparia (KCHSC); [7]): 0%; pest or weed control at 280 g/ha (Kochia scoparia (KCHSC); [7]): 0%; pest or weed control at 140 g/ha [2]: 2%; pest or weed control at 280 g/ha [2]: 7%; Control/Injury (Glycine max; in vivo): 3
8 | COc1c(Cl)ccc(Cl)c1C(=O)OCC[N+](C)(C)C [Compound A-63] | – | 85% | 92% | 58% | 77% | 82% | 97% | pest or weed control at 140 g/ha [3, 6]: 73%; pest or weed control at 280 g/ha [3, 6]: 87%; pest or weed control at 140 g/ha (Kochia scoparia (KCHSC)): 92%; pest or weed control at 280 g/ha (Kochia scoparia (KCHSC)): 97%; Control/Injury (Glycine max; GLXMA (soybean crop injury), rate 140 g ae/ha, postemergence, percent reduction vs untreated control, 21 days after treatment): 2; Control/Injury (Glycine max; GLXMA (soybean crop injury), rate 280 g ae/ha, postemergence, percent reduction vs untreated control, 21 days after treatment): 5
9 | COc1c(Cl)ccc(Cl)c1C(=O)OC(=O)c1c(Cl)ccc(Cl)c1OC [Compound A-90] | – | 30% | 25% | 22% | 18% | 57% | 67% | pest or weed control at 140 g/ha [3, 6]: 32%; pest or weed control at 280 g/ha [3, 6]: 40%; pest or weed control at 140 g/ha (Kochia scoparia (KCHSC); [5]): 17%; pest or weed control at 280 g/ha (Kochia scoparia (KCHSC); [5]): 32%; plant injury at 140 g/ha (Glycine max): 8%; plant injury at 280 g/ha (Glycine max): 3%

Second part, led by results:

Row | Volatility [1] | Structure (SMILES) | pest or weed control at 140 g/ha [2, 5] | pest or weed control at 280 g/ha [2, 5] | pest or weed control at 140 g/ha (Amaranthus rudis (AMATA)) | pest or weed control at 280 g/ha (Amaranthus rudis (AMATA)) | pest or weed control at 140 g/ha [4] | pest or weed control at 280 g/ha [4] | further results
10 | 0.074 ng/min | COc1ccccc1/C(N)=N/OC(=O)c1c(Cl)ccc(Cl)c1OC [Compound A-21] | 95% | 98% | – | – | – | – | –
11 | 0.026 ng/min | COc1c(Cl)ccc(Cl)c1C(=O)O/N=C(\N)c1ccc(C)cc1 [Compound A-17] | 94% | 95% | – | – | – | – | –
12 | 0.012 ng/min | COc1c(Cl)ccc(Cl)c1C(=O)O/N=C(\N)c1ccccc1Cl [Compound A-13] | – | – | – | – | – | – | –
13 | 0.0034 ng/min | COc1c(Cl)ccc(Cl)c1C(=O)O/N=C(\N)c1ccc2ccoc2c1 [Compound A-26] | 93% | 93% | – | – | – | – | –
14 | 0.189 ng/min | COc1c(Cl)ccc(Cl)c1C(=O)O/N=C(\N)Cc1ccccc1 [Compound A-8] | 98% | 99% | – | – | – | – | –
15 | 0.021 ng/min | COc1c(Cl)ccc(Cl)c1C(=O)O/N=C(\N)c1ccc2ncccc2c1 [Compound A-25] | 95% | 90% | – | – | – | – | –
16 | 0.04 ng/min | COc1ccc(/C(N)=N/OC(=O)c2c(Cl)ccc(Cl)c2OC)cc1 [Compound A-20] | – | – | – | – | – | – | –
17 | 0.086 ng/min | COc1c(Cl)ccc(Cl)c1C(=O)O/N=C(\N)CC(C)C [Compound A-59] | 94% | 99% | – | – | – | – | –
18 | 0.056 ng/min | COc1c(Cl)ccc(Cl)c1C(=O)O/N=C(\N)c1ccc(Cl)c(Cl)c1 [Compound A-14] | – | – | – | – | – | – | –
19 | 0.0098 ng/min | COc1c(Cl)ccc(Cl)c1C(=O)O/N=C(\N)c1ccc(Cl)cc1Cl [Compound A-15] | 98% | 96% | – | – | – | – | –
20 | 0.73 ng/min | COc1c(Cl)ccc(Cl)c1C(=O)OCc1cccnc1 [Compound A-45] | – | – | – | – | – | – | –
